Each block holds one compound with its values, some of them ahead of it.
Assays:
[1] = Order parameter in other liquid crystal media (hosts) / liquid crystal materials; format: physicochemical; settings: for Order Parameter: 20° C.
Experimental: (§1) In order to provide maximum contrast between the two states it is important that the guest molecules adopt as closely as possible the time averaged orientation of the host, however this is achieved only to a limited degree because of random thermal fluctuations. The degree to which the orientation varies from the ideal is measured by a quantity known as the order parameter S which is given by the following equation: […]
where cos^2 θ is a time averaged term and θ is the instantaneous angular orientation of the molecules with respect to the time averaged orientation of the host molecules. The determination of the value of the order parameter S is well understood in the art, see for example the paper, "A new absorptive mode reflective liquid crystal display device", by D. L. White and G. N. Taylor in the Journal of Applied Physics, 1974, 45, pages […] to 4723.
(§2) The properties of some of the dyes described in the Examples were also measured in other liquid crystal media (hosts) at 20° C., unless otherwise stated, and the results are set out in Table 5.
(§3) The liquid crystal materials referred to in Table 5 as Hosts 1 to 12 have the following compositions:
(§4) Host 1 is the liquid crystal material E7, available from BDH Chemicals Ltd, which includes the compounds:
(§5) Host 2 is the liquid crystal material ZLI 1132, available from E Merck & Co, which includes the following compounds:
(§6) Host 3 is the liquid crystal material ZLI 1695, available from E Merck & Co, Darmstadt, West Germany. This has a clearing point (nematic to isotropic transition temperature) of 72° C.
(§7) Host 4 is a mixture of alkyl-cyanophenyl-dioxanes containing n-propyl, n-pentyl and n-heptyl chains.
(§8) Host 5 is the liquid crystal material ZLI 1565, available from E Merck & Co. This has a clearing point of 85° C.
(§9) Host 6 is the liquid crystal material ZLI 1624, available from E Merck & Co. This has a clearing point of 87° C.
(§10) Host 8 is the liquid crystal material RO-TN 430 available from Hoffmann La Roche Co. This has a clearing point of 69° C.
(§11) Host 9 is a mixed bicyclo-octane liquid crystal material containing the following compounds:
(§12) Host 10 is a mixture of liquid crystal materials based mainly on cyanobiphenyls and available from BDH Chemicals Ltd under the name E61.
(§13) Host 11 is a mixture of liquid crystal materials based mainly on cyanobiphenyls and available from BDH Chemicals Ltd under the name E49.
(§14) Host 12 is a mixture of fluorobicyclo(2,2,2)octane esters having negative anisotropy and containing a mixture of two compounds of the following formula: […]

[2] = Solubility in other liquid crystal media (hosts) / liquid crystal materials; format: physicochemical
Experimental: as §2, §3, §4, §5, §6, §7, §8, §9, §10, §11, §12, §13, §14

[3] = Molar extinction coefficient in chloroform; format: physicochemical; settings: 592 nm
Experimental: To a mixture of 9.4 g of 2,7-di-n-pentyl-4,5-dinitrochrysazin from Example 25(b) in 200 ml of pyridine at 20° C. there was added a solution of 2.2 ml of thiophenol in 50 ml of pyridine. The colour of the mixture gradually changed from orange-brown to red and after 2 hours at 20° C. was drowned into water, filtered, washed successively with water and methanol and dried to yield 9.5 g of product (88% theory). The structure was confirmed by mass spectrometry and elemental analysis, C=67.5 (67.5) H=5.8 (5.8) S=6.7 (6.0) and N=3.0 (2.7).
To a mixture of 1.7 ml of 4-t-butylphenylmercaptan and 0.4 g of KOH in 50 ml of isopropanol at 60° C. was added 3.7 g of the product of Example 25(c) and the temperature raised to 80° C. for 1.5 hour. It was then cooled to room temperature, filtered, washed successively with isopropanol and methanol and dried to give 3.5 g of product. After recrystallisation from petroleum ether, the structure was confirmed by mass spectrometry and elemental analysis, C=73.0 (73.6) H=6.5 (6.8) S=9.1 (9.8).
The process of Example 25(c) was repeated using 9.6 g of 2,7-n-heptyl-4,5-dinitrochrysazin in place of the 9.4 g of 2,7-di-n-pentyl-4,5-dinitrochrysazin. The structure was confirmed by mass spectrometry.
The process of Example 25(d) was repeated using 3.8 g of 2,7-di-n-heptyl-4-phenylthio-5-nitrochrysazin in place of the 3.7 g of 2,7-di-n-pentyl-4-phenylthio-5-nitrochrysazin. After recrystallisation from petroleum ether, the structure was confirmed by mass spectrometry.

[4] = Absorption maximum in liquid crystal medium E43; format: physicochemical; settings: E43, 20° C., Table 4
Excerpt: Detection was by means of a u.v. source (254 nm) and samples, corresponding to all the peaks in the chromatogram, were collected.

[5] = Order parameter in liquid crystal medium E43; format: physicochemical; settings: E43, 20° C., Table 4
Experimental: as §1
where cos^2 θ is a time averaged term and θ is the instantaneous angular orientation of the molecules with respect to the time averaged orientation of the host molecules.

[6] = Solubility in liquid crystal material E43; settings: E43, 20° C., HPLC fractions, Table 3
[7] = Molar extinction coefficient of the dye in liquid crystal material; format: physicochemical
Excerpt: Solubility is, however, only one of the factors affecting the achievement of good contrast in a liquid crystal display, another factor is the extinction coefficient of the dye in the liquid crystal material. One useful indication of the ability of a dye to give good contrast is the product of the molar extinction coefficient and the solubility (in moles/liter).

[8] = prior-art symmetrical dyes; cited from earlier work
[9] = prior-art symmetrical dyes; cited from earlier work; remark: listed apart in the source
[10] = prior-art symmetrical dyes; cited from earlier work; remark: listed apart in the source

order parameter in liquid crystal materials (in words) ([1]; general statement): high
solubility in liquid crystal materials (in words) ([2]; general statement): particularly good
molar extinction coefficient [3]: 19,650
λmax [4]: 592 nm
Order Parameter [5]: 0.78
Compound: CCCCCCCc1cc(Sc2ccccc2)c2c(c1O)C(=O)c1c(O)c(CCCCCCC)cc(Sc3ccc(C(C)(C)C)cc3)c1C2=O [26(d), 2,7-Di-n-heptyl-4-phenylthio-5-(4-t-butylphenylthio)chrysazin]

Compound: bis-(phenylthio)-bis-(t-butylphenylthio)AQ [Fraction 3]
Solubility [6]: < 0.5%

molar extinction coefficient [7]: 11,000 cm^2.moles^-1
Order Parameter ([1]; Host 1 (E7)): 0.73
Order Parameter ([1]; Host 2 (ZLI 1132)): 0.79
Order Parameter ([1]; Host 3 (ZLI 1695)): 0.81
Order Parameter ([1]; Host 4 (alkyl-cyanophenyl-dioxanes mixture)): 0.74
Order Parameter ([1]; Host 9 (mixed bicyclo-octane)): 0.81
Order Parameter ([1]; Host 10 (E61)): 0.78
Order Parameter ([1]; Host 11 (E49)): 0.78
Order Parameter ([1]; Host 12 (fluorobicyclo(2,2,2)octane esters)): 0.77
Solubility ([2]; Host 2 (ZLI 1132), 20° C.): 4.0%
Solubility ([2]; Host 3 (ZLI 1695), 20° C.): 2.5%
Solubility ([2]; Host 10 (E61), -2° C.): 4.0%
Solubility ([2]; Host 11 (E49), 20° C.): > 5.0%
Solubility ([2]; Host 11 (E49), -2° C.): 4.4%
Solubility ([2]; Host 12 (fluorobicyclo(2,2,2)octane esters), 20° C.): 2.0%
λmax [4]: 464 nm
Order Parameter [5]: 0.79
Compound: CC(C)(C)c1ccc(Sc2cccc3c2C(=O)c2cccc(Sc4ccccc4)c2C3=O)cc1 [Example 11, 1-phenylthio-5-(4-t-butylphenylthio)anthraquinone]

Compound: O=C1c2cccc(Sc3ccccc3)c2C(=O)c2cccc(Sc3ccccc3)c21 [1,5-bis(phenylthio)anthraquinone]
stability (in words) [8]: adequate
order parameters (in words) [9]: high
solubility in the liquid crystal materials (in words) [10]: insufficient for practical purposes

— US4446047A, “Pleochroic anthraquinone dyes” (Imperial Chemical Industries PLC, priority 1981, dated 1984)
